Patent US20240083903A1, “ARYL ETHER COMPOUNDS AS TEAD MODULATORS” (Merck Sharp& Dohme LLC, priority 2021, published 2024)

Tested on: TEAD Reporter-MCF7 cell line
Test: YAP/TEAD cellular activity assay: inhibition of TEAD-Luc activity in TEAD Reporter-MCF7 cell line
Format: cell-based, human
Conditions: Homo sapiens, MCF7, 24 h, TEAD Reporter-MCF7 cells, 24 hours incubation with compound, luciferase readout
Outline: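 MCF7 cells stably carrying a TEAD-responsive firefly luciferase reporter were seeded at 10,000 cells/well, grown 20-24 h, then exposed to compounds for 24 h at 37° C. Luciferase read by ONE-Glo EX luminescence; percent inhibition and EC50 derived.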

EC50 [nM] | SMILES
14 | CNS(=O)(=O)c1ccc(Oc2ccc(SC(F)(F)F)cc2)c(-c2cn3c(n2)CCC3)c1 [4-17, 3-(6,7-dihydro-5H-pyrrolo[1,2-a]imidazol-2-yl)-N-methyl-4-{4-[(trifluoromethyl)sulfanyl]phenoxy}benzene-1-sulfonamide]
146 | CNS(=O)(=O)c1ccc(Oc2cccc(F)c2)c(-c2cn3c(n2)CCC3)c1 [4-6, 3-(6,7-dihydro-5H-pyrrolo [1,2-a]imidazol-2-yl)-4-(3-fluorophenoxy)-N-methylbenzene-1-sulfonamide]
49.8 | CNS(=O)(=O)c1ccc(Oc2ccc(C(F)(F)F)cn2)c(-c2cn3c(n2)CCC3)c1 [10-1, 3-(6,7-Dihydro-5H-pyrrolo[1,2-a]imidazol-2-yl)-N-methyl-4-((5-(trifluoromethyl)pyridin-2-yl)oxy)benzenesulfonamide]
14.1 | CNS(=O)(=O)c1ccc(Oc2ccc(Cl)cc2)c(-c2cn3c(n2)CCC3)c1 [4-12, 4-(4-chlorophenoxy)-3-(6,7-dihydro-5H-pyrrolo[1,2-a]imidazol-2-yl)-N-methylbenzene-1-sulfonamide]
304 | CNS(=O)(=O)c1ccc(Oc2ccc(C(F)(F)F)cc2)c(-c2cn3c(n2)C(C)(O)CC3)c1 (centres unmarked) [9-2, 3-(7-Hydroxy-7-methyl-6,7-dihydro-5H-pyrrolo[1,2-a]imidazol-2-yl)-N-methyl-4-(4-(trifluoromethyl)phenoxy)benzenesulfonamide]
21.5 | CNS(=O)(=O)c1ccc(Oc2ccc(F)cc2)c(-c2cc3n(n2)CCC3)c1 [8-2, 3-(5,6-dihydro-4H-pyrrolo[1,2-b]pyrazol-2-yl)-4-(4-fluorophenoxy)-N-methylbenzene-1-sulfonamide]
5.5 | CNS(=O)(=O)c1ccc(Oc2ccc(C(C)C)cc2)c(-c2cn3c(n2)CCC3)c1 [4-8, 3-(6,7-dihydro-5H-pyrrolo [1,2-a]imidazol-2-yl)-N-methyl-4-[4-(propan-2-yl)phenoxy]benzene-1-sulfonamide]
46.6 | CNS(=O)(=O)c1ccc(Oc2ccc(C(F)F)cc2)c(-c2cc3n(n2)CCC3)c1 [8-4, 4-[4-(difluoromethyl)phenoxy]-3-(5,6-dihydro-4H-pyrrolo[1,2-b]pyrazol-2-yl)-N-methylbenzene-1-sulfonamide]
8.7 | CNS(=O)(=O)c1cnc(Oc2ccc(C(F)(F)F)cc2)c(-c2cn3c(n2)CCC3)c1 [11-1, 5-(6,7-dihydro-5H-pyrrolo[1,2-a]imidazol-2-yl)-N-methyl-6-[4-(trifluoromethyl)phenoxy]pyridine-3-sulfonamide]
4410 | O=S(=O)(NCC1CC1)c1ccc(Oc2ccc(C(F)(F)F)cc2)c(-c2cnn3c2CCC3)c1 [5-1, N-(Cyclopropylmethyl)-3-(5,6-dihydro-4H-pyrrolo[1,2-b]pyrazol-3-yl)-4-(4-(trifluoromethyl)phenoxy)benzenesulfonamide]

The next lines start with the compound.

SMILES | EC50 [nM]
CNS(=O)(=O)c1ccc(Oc2ccc(C(F)(F)F)cc2)c(-c2cn3c(n2)CCC3)c1 [1-1, 3-(6,7-Dihydro-5H-pyrrolo[1,2-a]imidazol-2-yl)-N-methyl-4-(4-(trifluoromethyl)phenoxy)benzenesulfonamide] | 6
CNS(=O)(=O)c1ccc(Oc2ccc(C(F)(F)F)cc2)c(-c2nc3ncccn3n2)c1 [1-10, N-methyl-3-([1,2,4]triazolo[1,5-a]pyrimidin-2-yl)-4-[4-(trifluoromethyl)phenoxy]benzene-1-sulfonamide] | 454
CNS(=O)(=O)c1ccc(Oc2cccc(C(F)(F)F)c2)c(-c2cnn3c2OCC3)c1 [1-49, 3-(2,3-dihydropyrazolo[5,1-b]oxazol-7-yl)-N-methyl-4-(3-(trifluoromethyl)phenoxy)benzenesulfonamide] | 315
CNS(=O)(=O)c1ccc(Oc2cc(F)cc(C(F)(F)F)c2)c(-c2cnn3c2CCC3)c1 [3-3, 3-(5,6-dihydro-4H-pyrrolo[1,2-b]pyrazol-3-yl)-4-[3-fluoro-5-(trifluoromethyl)phenoxy]-N-methylbenzene-1-sulfonamide] | 2080
CNS(=O)(=O)c1ccc(Oc2ccc(C(F)(F)F)cc2)c(-c2ccc3c(=O)nc[nH]c3c2)c1 [2-32, N-methyl-3-(4-oxo-1,4-dihydroquinazolin-7-yl)-4-[4-(trifluoromethyl)phenoxy]benzene-1-sulfonamide] | 7570
CNS(=O)(=O)c1ccc(Oc2ccc(C(F)(F)F)cc2)c(-c2cn3cccc(C)c3n2)c1 [1-33, N-methyl-3-(8-methylimidazo[1,2-a]pyridin-2-yl)-4-[4-(trifluoromethyl)phenoxy]benzene-1-sulfonamide] | 236
CNS(=O)(=O)c1ccc(Oc2ccc(C(F)(F)F)cc2)c(-c2ccc3c(c2)n(C)c(=O)n3C)c1 [2-8, 3-(1,3-dimethyl-2-oxo-2,3-dihydro-1H-benzimidazol-5-yl)-N-methyl-4-[4-(trifluoromethyl)phenoxy]benzene-1-sulfonamide] | 198
CNS(=O)(=O)c1ccc(Oc2ccc(C(F)(F)F)cc2)c(-c2cnc3c(C)cccn23)c1 [1-4, N-Methyl-3-(8-methylimidazo[1,2-a]pyridin-3-yl)-4-(4-(trifluoromethyl)phenoxy)benzenesulfonamide] | 6030
CNS(=O)(=O)c1ccc(Oc2ccc(C(F)(F)F)cc2)c(-c2cnn3c2CCC3)c1 [1-5, 3-(5,6-dihydro-4H-pyrrolo[1,2-b]pyrazol-3-yl)-N-methyl-4-[4-(trifluoromethyl)phenoxy]benzene-1-sulfonamide] | 106
CNS(=O)(=O)c1ccc(Oc2ccc(C(F)(F)F)cc2)c(-c2cccc3cc[nH]c23)c1 [2-7, 3-(1H-indol-7-yl)-N-methyl-4-[4-(trifluoromethyl)phenoxy]benzene-1-sulfonamide] | 5620
CNS(=O)(=O)c1ccc(Oc2ccc(C(F)(F)F)cc2)c(-c2cnc3cc(C)ccn23)c1 [1-25, N-methyl-3-(7-methylimidazo[1,2-a]pyridin-3-yl)-4-[4-(trifluoromethyl)phenoxy]benzene-1-sulfonamide] | 3270
CNS(=O)(=O)c1ccc(Oc2ccc(C(F)(F)F)cc2)c(-c2cc3n(n2)CCN3)c1 [1-45, 3-(2,3-dihydro-1H-imidazo[1,2-b]pyrazol-6-yl)-N-methyl-4-[4-(trifluoromethyl)phenoxy]benzene-1-sulfonamide] | 64.4
CNS(=O)(=O)c1ccc(Oc2ccc(C(F)(F)F)cc2)c(-c2cc3ccc(C)nc3cc2OC)c1 [2-21, 3-(7-methoxy-2-methylquinolin-6-yl)-N-methyl-4-[4-(trifluoromethyl)phenoxy]benzene-1-sulfonamide] | 9780
CNS(=O)(=O)c1ccc(Oc2ccc(C(F)(F)F)cc2)c(-c2cnc3n2CCC3)c1 [1-6, 3-(6,7-dihydro-5H-pyrrolo[1,2-a]imidazol-3-yl)-N-methyl-4-[4-(trifluoromethyl)phenoxy]benzene-1-sulfonamide] | 3490
CNS(=O)(=O)c1ccc(Oc2ccc(C(F)(F)F)cc2)c(-c2cc3ncccn3n2)c1 [1-19, N-methyl-3-(pyrazolo[1,5-a]pyrimidin-2-yl)-4-[4-(trifluoromethyl)phenoxy]benzene-1-sulfonamide] | 60.6
CNS(=O)(=O)c1ccc(Oc2ccc(C(F)(F)F)cc2)c(-c2ccc3[nH]c(=O)[nH]c3c2)c1 [2-5, N-methyl-3-(2-oxo-2,3-dihydro-1H-benzimidazol-5-yl)-4-[4-(trifluoromethyl)phenoxy]benzene-1-sulfonamide] | 4540
CNS(=O)(=O)c1ccc(Oc2ccc(C(F)(F)F)cc2)c(-c2cc3ccccn3n2)c1 [1-35, N-methyl-3-(pyrazolo[1,5-a]pyridin-2-y1)-4-[4-(trifluoromethyl)phenoxy]benzene-1-sulfonamide] | 99.4
CNS(=O)(=O)c1ccc(Oc2ccc(C(F)(F)F)cc2)c(-c2cnc3[nH]ccc3c2)c1 [2-10, N-methyl-3-(1H-pyrrolo[2,3-b]pyridin-5-yl)-4-[4-(trifluoromethyl)phenoxy]benzene-1-sulfonamide] | 2420
CNS(=O)(=O)c1ccc(Oc2ccc(C(F)(F)F)cc2)c(-c2ccc3nc(C)ccc3c2)c1 [2-31, N-methyl-3-(2-methylquinolin-6-yl)-4-[4-(trifluoromethyl)phenoxy]benzene-1-sulfonamide] | 663
CNS(=O)(=O)c1ccc(Oc2ccc(C(F)(F)F)cc2)c(-c2nsc3ccccc23)c1 [1-13, 3-(1,2-benzothiazol-3-yl)-N-methyl-4-[4-(trifluoromethyl)phenoxy]benzene-1-sulfonamide] | 414
CNS(=O)(=O)c1ccc(Oc2ccc(C(F)(F)F)cc2)c(-c2cn3ccc(C(=O)OC)cc3n2)c1 [1-30, methyl 2-{5-(methylsulfamoyl)-2-[4-(trifluoromethyl)phenoxy]phenyl} imidazo[1,2-a]pyridine-7-carboxylate] | 7800
CNS(=O)(=O)c1ccc(Oc2ccc(C(F)(F)F)cc2)c(-c2cnc3ccc(N)cn23)c1 [1-24, 3-(6-aminoimidazo[1,2-a]pyridin-3-yl)-N-methyl-4-[4-(trifluoromethyl)phenoxy]benzene-1-sulfonamide] | 5390
CNS(=O)(=O)c1ccc(Oc2ccc(C(F)(F)F)cc2)c(-c2ccc(OC)c3nc(C(F)(F)F)[nH]c23)c1 [2-3, 3-[4-methoxy-2-(trifluoromethyl)-1H-benzimidazol-7-yl]-N-methyl-4-[4-(trifluoromethyl)phenoxy]benzene-1-sulfonamide] | 4920

Same assay, conditions: Homo sapiens; TEAD Reporter-MCF7 cells, 24 hours incubation with compound, luciferase readout

SMILES | EC50 [nM]
CC(C)NS(=O)(=O)c1ccc(Oc2ccc(C(F)(F)F)cc2)c(-c2cn3c(n2)CCC3)c1 [7-1, 3-(6,7-dihydro-5H-pyrrolo[1,2-a]imidazol-2-yl)-N-(propan-2-yl)-4-[4-(trifluoromethyl)phenoxy]benzene-1-sulfonamide] | 138

Same assay, conditions: TEAD Reporter-MCF7 cells, 24 hours incubation with compound, luciferase readout

EC50 [nM] | SMILES
7.4 | CNS(=O)(=O)c1ccc(Oc2ccc(C(F)(F)F)cc2)c(-c2cn3c(n2)OC(C)C3)c1 (single isomer, unassigned) [1-39, (S)- or (R)-N-methyl-3-(2-methyl-2,3-dihydroimidazo[2,1-b] [1,3]oxazol-6-yl)-4-[4-(trifluoromethyl)phenoxy]benzene-1-sulfonamide]
